The values that follow come from ChEMBL document CHEMBL1151866, “Design and synthesis of novel delta opioid receptor agonists and their pharmacologies” (Bioorg Med Chem Lett, 2009).

In experiment [1] the target is T1, Delta-type opioid receptor (Homo sapiens, UniProt P41143). The experiment is described as follows: Agonist activity at human recombinant delta opioid receptor expressed in HEK293 cells by [35S]GTPgammaS binding assay. Format: functional, cell-based. For orientation: GTPγS resists hydrolysis and so accumulates on activated G proteins.
A further experiment is filed under the species Rattus norvegicus. The experiment is described as follows: Selectivity ratio of Ki for mu opioid receptor in rat cerebellum membrane to Ki for delta opioid receptor in rat cerebellum membrane. The format is cell membranes.
For experiment [2], the target named is Kappa-type opioid receptor (Cavia porcellus, UniProt P41144). Put plainly: Displacement of [3H]U-69593 from kappa opioid receptor in guinea pig cerebellum. The format is tissue-based.
Experiment [3] addresses Delta-type opioid receptor (Rattus norvegicus, UniProt P33533). Put plainly: Displacement of [3H]DADLE from delta opioid receptor in rat cerebellum membrane. The format is cell membranes. For orientation: In a radioligand displacement assay an active substance lowers the binding of a labelled ligand.
A short description of experiment [4]: Selectivity ratio of Ki for kappa opioid receptor in guinea pig cerebellum to Ki for delta opioid receptor in rat cerebellum membrane. Format: cell membranes.
Another experiment concerns the target Mu-type opioid receptor (Rattus norvegicus, UniProt P33535). The experiment is described as follows: Displacement of [3H]DAMGO from mu opioid receptor in rat cerebellum membrane. The format is cell membranes.
Experiment [5] concerns the target T1, Delta-type opioid receptor. Put plainly: Ratio of EC50 for drug to EC50 for TAN-67 against human recombinant delta opioid receptor.
In the next experiment the test system is Mus musculus. Put plainly: Analgesic activity against acetic acid-induced writhing in sc dosed mouse. Format: functional. In general terms: Writhing tests count abdominal constrictions after an irritant is injected.
In experiment [6] the target is T1, Delta-type opioid receptor. The experiment is described as follows: Agonist activity at human recombinant delta opioid receptor expressed in CHO cells by [35S]GTPgammaS binding assay. The format is functional, cell-based.

T1 sequence (P41143 whole entry): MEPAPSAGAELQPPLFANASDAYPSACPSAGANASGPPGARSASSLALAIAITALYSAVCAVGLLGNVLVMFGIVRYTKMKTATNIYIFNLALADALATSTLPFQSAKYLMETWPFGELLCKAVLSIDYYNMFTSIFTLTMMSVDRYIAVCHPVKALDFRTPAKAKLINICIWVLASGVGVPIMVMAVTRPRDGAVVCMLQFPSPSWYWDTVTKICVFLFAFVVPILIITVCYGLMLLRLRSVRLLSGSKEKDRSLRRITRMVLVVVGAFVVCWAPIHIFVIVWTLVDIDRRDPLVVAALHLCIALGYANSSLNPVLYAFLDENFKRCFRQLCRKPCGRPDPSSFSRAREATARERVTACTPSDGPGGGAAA
Sequence of Kappa-type opioid receptor (P41144 whole entry): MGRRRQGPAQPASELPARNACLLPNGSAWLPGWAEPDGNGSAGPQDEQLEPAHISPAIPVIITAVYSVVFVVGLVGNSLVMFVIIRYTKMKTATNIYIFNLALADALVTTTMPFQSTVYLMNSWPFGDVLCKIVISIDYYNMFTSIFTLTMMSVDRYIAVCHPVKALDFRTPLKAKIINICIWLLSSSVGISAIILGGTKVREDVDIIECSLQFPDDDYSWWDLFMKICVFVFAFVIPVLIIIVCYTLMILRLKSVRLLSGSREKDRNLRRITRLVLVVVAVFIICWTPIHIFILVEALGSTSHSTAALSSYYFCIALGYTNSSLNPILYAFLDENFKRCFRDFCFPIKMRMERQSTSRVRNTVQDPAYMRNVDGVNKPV
Sequence of Delta-type opioid receptor (Rattus norvegicus, UniProt P33533) (P33533 whole entry): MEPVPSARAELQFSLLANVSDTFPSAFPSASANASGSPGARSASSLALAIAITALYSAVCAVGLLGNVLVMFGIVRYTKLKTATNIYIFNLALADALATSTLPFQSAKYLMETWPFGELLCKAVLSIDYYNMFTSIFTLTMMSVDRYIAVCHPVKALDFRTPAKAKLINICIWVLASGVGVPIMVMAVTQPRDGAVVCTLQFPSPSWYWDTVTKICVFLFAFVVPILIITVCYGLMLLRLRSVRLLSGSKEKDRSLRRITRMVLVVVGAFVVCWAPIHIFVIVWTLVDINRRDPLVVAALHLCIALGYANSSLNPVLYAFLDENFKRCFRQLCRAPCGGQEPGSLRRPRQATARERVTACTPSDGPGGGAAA
Sequence of Mu-type opioid receptor (P33535 whole entry): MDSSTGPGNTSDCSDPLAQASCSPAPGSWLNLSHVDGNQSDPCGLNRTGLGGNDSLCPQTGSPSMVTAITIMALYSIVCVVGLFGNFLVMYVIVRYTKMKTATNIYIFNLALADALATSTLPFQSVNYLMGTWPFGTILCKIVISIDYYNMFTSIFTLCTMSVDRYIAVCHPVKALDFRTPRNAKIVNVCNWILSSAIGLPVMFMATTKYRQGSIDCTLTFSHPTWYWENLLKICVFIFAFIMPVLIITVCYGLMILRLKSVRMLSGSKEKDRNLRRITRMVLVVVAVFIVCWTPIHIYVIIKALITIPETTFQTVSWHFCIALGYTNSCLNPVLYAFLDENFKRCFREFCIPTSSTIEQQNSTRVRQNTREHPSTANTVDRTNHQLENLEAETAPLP

As to `Oc1ccc2c(c1)[C@]13CCN(CC4CC4)[C@H](C2)[C@@H]1Cc1cc2ccccc2nc1C3`, in experiment [1], the EC50 (as a rule, the concentration needed to bring the measured effect to its halfway point) turned out to be 0.018 nM. Also, the results for the Ratio (in the experiment listed under Rattus norvegicus; in [4]) were 4.1 and 1.9, respectively. Further, the figures for the Ki (in experiment [2]; in experiment [3]; on Mu-type opioid receptor) were 0.36 nM, 0.19 nM and 0.77 nM, respectively. The Ratio EC50 in experiment [5] amounted to 10.

On to `CN1CC[C@]2(c3cccc(O)c3)Cc3nc4ccccc4cc3C[C@H]2C1`, for which the values for the EC50 in experiment [1] and in experiment [6] were 0.7 nM and 1.4 nM, respectively. Also, the Ratio in the experiment listed under Rattus norvegicus was determined as 197; in experiment [4], 509. In the experiment with Mus musculus, the 50% effect level (ED50) was put at a dose of 31.4 mg/kg. The Ki (as a rule, the equilibrium dissociation constant of an inhibitor or competing ligand from its target) was 732 nM in [2], 1.44 nM in experiment [3] and 284 nM at Mu-type opioid receptor.

For the molecule `CC(C)CN1CC[C@]23Cc4nc5ccccc5cc4C[C@H]2[C@H]1Cc1ccc(O)cc13`, the concentration for a half-maximal effect (EC50) in experiment [1] turned out to be 0.06 nM. The Ratio in the experiment filed under Rattus norvegicus was 124; in [4], 23.2. The inhibition constant Ki in experiment [2] is 4.41 nM; in experiment [3], 0.19 nM; on Mu-type opioid receptor, 23.6 nM. The Ratio EC50 in [5] came to 10.

For `CN1CC[C@]23Cc4nc5ccccc5cc4C[C@H]2[C@H]1Cc1ccc(O)cc13`, the EC50 in experiment [1] was 0.047 nM. Moreover, the Ratio in the experiment listed under Rattus norvegicus was found to be 82.4; in experiment [4], 72.9. Also, the inhibitory constant (Ki) in experiment [2] amounted to 10.2 nM; in experiment [3], 0.14 nM; on Mu-type opioid receptor, 11.5 nM. Further, the Ratio EC50 in experiment [5] was determined as 10.
